Test systems include COLO 205 colon; DMS 273 small cell lung; HCC-2998 colon; K-562 leukemia; KM20L2 colon; LXFL 529 NSCLC; SF-295 CNS; SF-539 CNS; HOP-92 NSCLC.
Test in all cases: DTP human tumour cell line panel, 48 h

Structures are written as SMILES.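 Growth conditions: 96-well plates. Treatment: test compound, 48 hours, 5 concentrations. Analysis: linear interpolation between bracketing concentrations; unreached endpoints set to highest concentration. Abbreviation: GI50, concentration required for 50% inhibition of growth. TGI: concentration producing complete growth inhibition.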

One may read the TGI as the concentration giving total growth inhibition. Take `CC(=O)Nc1ccc(C2[C@H]3C(=O)N(c4ccc(Cc5ccc(N6C(=O)[C@@H]7ON(c8ccccc8)C(c8ccc(NC(C)=O)cc8)[C@@H]7C6=O)cc5)cc4)C(=O)[C@H]3ON2c2ccccc2)cc1` (some centres undefined): the total growth inhibition concentration (TGI) in the experiment with COLO 205 colon, with DMS 273 small cell lung, in the experiment with HCC-2998 colon, with K-562 leukemia, in the experiment with KM20L2 colon and with LXFL 529 NSCLC was over 100 µM throughout. The TGI in the experiment with SF-295 CNS and in the experiment on SF-539 CNS was over 100 µM in each case.
For the compound `COC(=O)C1=C(O)C(O)=C(C(=O)OC)C1`, the TGI in the experiment with COLO 205 colon, with DMS 273 small cell lung, in the experiment with HCC-2998 colon, with HOP-92 NSCLC, in the experiment with K-562 leukemia and in the experiment with KM20L2 colon was over 100 µM in each case. Besides, the TGI in the experiment with LXFL 529 NSCLC, in the experiment with SF-295 CNS and in the experiment on SF-539 CNS was over 100 µM each time.
As for `CC1NOC(=O)C1N=Nc1ccccc1Cl` (centres undefined), the TGI was over 100 µM in the experiment with COLO 205 colon; over 100 µM with HCC-2998 colon; 54.6 µM in the experiment with HOP-92 NSCLC; over 100 µM with K-562 leukemia; over 100 µM in the experiment on KM20L2 colon; over 100 µM in the experiment on LXFL 529 NSCLC. The TGI in the experiment on SF-295 CNS and in the experiment with SF-539 CNS was over 100 µM each time.
As to `O=S1(=O)C[C@@H](O)[C@H](O)CS1`, the TGI in the experiment with COLO 205 colon, in the experiment with DMS 273 small cell lung, in the experiment with HCC-2998 colon, in the experiment on HOP-92 NSCLC, with K-562 leukemia and with KM20L2 colon was over 100 µM in each case. The TGI with LXFL 529 NSCLC, with SF-295 CNS and in the experiment with SF-539 CNS was over 100 µM throughout.
Take `ON=C1CCC(c2ccccc2)CC1` (centres undefined): the TGI with COLO 205 colon, in the experiment with DMS 273 small cell lung, with HCC-2998 colon, in the experiment with HOP-92 NSCLC, in the experiment with K-562 leukemia and with KM20L2 colon was over 100 µM throughout. For the same compound, the TGI in the experiment on LXFL 529 NSCLC, in the experiment on SF-295 CNS and in the experiment on SF-539 CNS was over 100 µM throughout.
`CCOC(=O)c1ccc(N2C(=O)/C(=C\OC)c3ccccc3C2=O)cc1`: the TGI in the experiment with COLO 205 colon is over 100 µM; in the experiment with DMS 273 small cell lung, over 100 µM; with HCC-2998 colon it was over 100 µM; in the experiment with K-562 leukemia, over 100 µM; with KM20L2 colon, over 100 µM; with LXFL 529 NSCLC, 89.1 µM. Besides, the TGI with SF-295 CNS and with SF-539 CNS was over 100 µM each time.
Turning to `CC(C(=O)Oc1ccc2ccccc2c1-c1c(O)ccc2ccccc12)c1ccccc1` (centres undefined), the TGI was 33.4 µM with COLO 205 colon; 28.9 µM with HCC-2998 colon; 23.5 µM in the experiment with HOP-92 NSCLC; 86.7 µM in the experiment with K-562 leukemia; 27.1 µM in the experiment on LXFL 529 NSCLC; 25.6 µM in the experiment with SF-295 CNS. This compound returned a TGI in the experiment with SF-539 CNS of 33.9 µM.
As a reminder, the GI50 is the concentration at which growth is held to half of that of the control. `O=C([CH-]C(=O)c1ccccc1)c1ccccc1.O=C([CH-]C(=O)c1ccccc1)c1ccccc1.[Nd+3].[OH-].[OH3+]`: the GI50 in the experiment on COLO 205 colon is 13.9 µM; with HCC-2998 colon it was 9.11 µM; in the experiment with HOP-92 NSCLC, 13.6 µM; with K-562 leukemia it was 3.31 µM; in the experiment on KM20L2 colon, 8.45 µM; with SF-295 CNS it was 3.95 µM. Besides, the GI50 in the experiment on SF-539 CNS is 15.8 µM. Moreover, the TGI is 31.4 µM with COLO 205 colon; 26.6 µM in the experiment with HCC-2998 colon; 39.7 µM with HOP-92 NSCLC; 19.1 µM with K-562 leukemia; 28.8 µM in the experiment on KM20L2 colon; 22.8 µM in the experiment with SF-295 CNS. In the experiment with SF-539 CNS, this compound came in with a TGI of 48 µM.
Turning to `O=C(c1ccccc1)c1c(C(=O)c2ccccc2)c(-c2ccccc2)c2c(-c3ccccc3)sc(-c3ccccc3)c2c1-c1ccccc1`, the TGI in the experiment with COLO 205 colon, in the experiment on DMS 273 small cell lung, in the experiment on HCC-2998 colon, in the experiment with HOP-92 NSCLC, with K-562 leukemia and with KM20L2 colon was over 100 µM each time. In addition, the TGI with LXFL 529 NSCLC, in the experiment on SF-295 CNS and in the experiment with SF-539 CNS was over 100 µM each time.
Take `Cc1c2cc[nH]c(=O)c2cc2c(=O)c3cnccc3[nH]c12`: the TGI in the experiment with COLO 205 colon, in the experiment with DMS 273 small cell lung, with HCC-2998 colon, with HOP-92 NSCLC, in the experiment on K-562 leukemia and in the experiment with KM20L2 colon was over 100 µM each time. Also, the TGI in the experiment with LXFL 529 NSCLC and in the experiment with SF-295 CNS was over 100 µM in each case.
Consider `CCOC(=O)C(C)c1cc(C2(C)OCCO2)c(C)o1` (centres undefined), for which the TGI in the experiment with COLO 205 colon was over 100 µM; with DMS 273 small cell lung it was over 100 µM; with HCC-2998 colon it was over 100 µM; in the experiment with HOP-92 NSCLC, 97.7 µM; in the experiment with K-562 leukemia it was over 100 µM; in the experiment on KM20L2 colon, over 100 µM. The TGI in the experiment on LXFL 529 NSCLC, in the experiment on SF-295 CNS and in the experiment with SF-539 CNS was over 100 µM each time.
Turning to `CN(c1ccccc1)C(c1ccccc1)C(O)c1ccccc1` (centres undefined), the TGI with COLO 205 colon turned out to be 30.1 µM; in the experiment on DMS 273 small cell lung, 34 µM; in the experiment on HCC-2998 colon, 38.8 µM; in the experiment with HOP-92 NSCLC, 47.8 µM; with K-562 leukemia it was 41.1 µM; in the experiment with KM20L2 colon, 35.7 µM. Besides, the concentration for total growth inhibition (TGI) is 43.4 µM with LXFL 529 NSCLC, 32 µM with SF-295 CNS and 37.7 µM with SF-539 CNS.
As for `O=c1cc2ccccc2nn1-c1ccccc1Cl`, the TGI in the experiment on COLO 205 colon, with DMS 273 small cell lung, with HCC-2998 colon, with HOP-92 NSCLC, with K-562 leukemia and in the experiment on KM20L2 colon was over 100 µM in each case. Further, the TGI in the experiment on SF-295 CNS and in the experiment on SF-539 CNS was over 100 µM in each case.
`O=C1C(=O)N(c2ccc(Cl)c(Cl)c2)C(=O)C(=O)C1c1nc2ccccc2o1`: the TGI in the experiment on COLO 205 colon, in the experiment with DMS 273 small cell lung, with HCC-2998 colon, in the experiment on HOP-92 NSCLC, in the experiment on K-562 leukemia and with KM20L2 colon was over 100 µM throughout. Also, the TGI with LXFL 529 NSCLC, in the experiment with SF-295 CNS and in the experiment on SF-539 CNS was over 100 µM each time.

These data come from PubChem BioAssay (NCI).
